Results published in ChEMBL document CHEMBL5108006, “Synthesis and antiviral properties of biomimetic iminosugar-based nucleosides” (Eur J Med Chem, 2022).
pEC50: −log10 of the molar value.

What was measured:
Human alphaherpesvirus 3 [1] = assay type: functional, organism-based; settings: Human alphaherpesvirus 3, O7-1, HEL
[2] = (§1) Cytotoxicity against HEL cells assessed as alteration of cell morphology by microscopic analysis; assay type: toxicity, cell-based; settings: human, HEL cells
Human betaherpesvirus 5 [3] = assay type: functional, organism-based; settings: Human betaherpesvirus 5, Davis, HEL
Human adenovirus 2 = assay type: functional, organism-based; settings: Human mastadenovirus C, HEL
Human alphaherpesvirus 2 = assay type: functional, organism-based; settings: Human alphaherpesvirus 2, G, HEL
Human alphaherpesvirus 1 [4] = assay type: functional, organism-based; settings: Human alphaherpesvirus 1, KOS, HEL
Human betaherpesvirus 5 [5] = assay type: functional, organism-based; settings: Human betaherpesvirus 5, AD-169, HEL
Vaccinia virus = experiment: microbe, parasite or virus in culture; settings: Orthopoxvirus vaccinia, HEL
Human alphaherpesvirus 3 [6] = assay type: functional, organism-based; settings: Human alphaherpesvirus 3, OKA, HEL
Human alphaherpesvirus 1 [7] = assay type: functional, organism-based; settings: Human alphaherpesvirus 1, KOS, HEL; remark: listed apart in the source
HEL = experiment: as §1; assay type: toxicity, cell-based; settings: human, hel

Row | SMILES | pEC50 (Human alphaherpesvirus 3 [1]) | MCC [2] | pEC50 (Human betaherpesvirus 5 [3]) | pEC50 (Human adenovirus 2) | pEC50 (Human alphaherpesvirus 2) | pEC50 (Human alphaherpesvirus 1 [4]) | pEC50 (Human betaherpesvirus 5 [5]) | pEC50 (Vaccinia virus) | pEC50 (Human alphaherpesvirus 3 [6]) | pEC50 (Human alphaherpesvirus 1 [7]) | Activity (HEL)
1 | O=c1[nH]c(=O)n([C@@H]2CN[C@H](CO)[C@@H](O)C2)cc1I | 4.21 | > 100 µM | 4.17 | 4.30 | 4.35 | 4.47 | 4.12 | 4.30 | 4.30 | 4.35 | –
2 | Nc1nc(=O)n([C@@H]2CN[C@H](CO)[C@@H](O)C2)cc1F | – | – | – | – | – | – | – | – | – | – | Non-Toxic
3 | Nc1nc2c(ncn2COCCO)c(=O)[nH]1 [ACYCLOVIR] | 4.83 | > 250 µM | – | – | – | 3.90 | – | < 3.60 | 6.15 | – | –
4 | O=c1[nH]c(=O)n([C@H]2C[C@H](O)[C@@H](CO)O2)cc1/C=C/Br [BRIVUDINE] | 5.62 | > 250 µM | – | – | – | – | – | – | 7.38 | – | –
5 | Nc1ccn(C[C@@H](CO)OCP(=O)(O)O)c(=O)n1 [CIDOFOVIR] | – | > 250 µM | – | – | – | 6.00 | – | – | – | – | –
6 | Nc1nc2c(ncn2COC(CO)CO)c(=O)[nH]1 [GANCICLOVIR] | – | > 100 µM | 6.20 | – | – | – | – | < 4.00 | – | – | –
